Test results from the NIST ThermoML archive (doi:10.1016/j.jct.2014.12.022).
Numbers after ± are expanded uncertainties.

How the values were obtained:
[1] = 101.33 kPa, Liquid; for speed of sound: Sing-around technique in a fixed-path interferometer; for mass density: Vibrating tube method
[2] = molar heat capacity at constant pressure; details: 101.33 kPa, Liquid, Small sample (50 mg) DSC

CN1CCCC1=O [N-methylpyrrolidone]
speed of sound ([1]; 293.15 K): 1565.6 ± 1.6 m/s
mass density ([1]; 293.15 K): 1033.3 ± 1 kg/m3
speed of sound ([1]; 298.15 K): 1546.1 ± 1.6 m/s
mass density ([1]; 298.15 K): 1028.3 ± 1 kg/m3
speed of sound ([1]; 303.15 K): 1527.3 ± 1.6 m/s
mass density ([1]; 303.15 K): 1023.5 ± 1 kg/m3
molar heat capacity at constant pressure ([2]; 293.15 K): 165.44 ± 3.3 J/K/mol
molar heat capacity at constant pressure ([2]; 298.15 K): 166.22 ± 3.3 J/K/mol
molar heat capacity at constant pressure ([2]; 303.15 K): 166.92 ± 3.3 J/K/mol

c1ccccc1 [benzene]
speed of sound ([1]; 293.15 K): 1322.6 ± 1.5 m/s
mass density ([1]; 293.15 K): 878.89 ± 1 kg/m3
speed of sound ([1]; 298.15 K): 1299.4 ± 1.5 m/s
mass density ([1]; 298.15 K): 873.54 ± 1 kg/m3
speed of sound ([1]; 303.15 K): 1276.2 ± 1.5 m/s
mass density ([1]; 303.15 K): 868.2 ± 1 kg/m3
molar heat capacity at constant pressure ([2]; 293.15 K): 133.58 ± 2.7 J/K/mol
molar heat capacity at constant pressure ([2]; 298.15 K): 135.28 ± 2.7 J/K/mol
molar heat capacity at constant pressure ([2]; 303.15 K): 136.58 ± 2.7 J/K/mol
